In US20250154123A1, “COOLING COMPOUNDS AND COMPOSITIONS” (V. MANE FILS, priority 2022, published 2025):

Key:
hTRPM8 [1] = molecular target: T1, hTRPM8 (Homo sapiens, UniProt Q7Z2W7); experiment: Secondary in vitro screening on hTRPM8 at 5 μM versus WS-3; type: cell-based; conditions: WS3 as reference compound
T1 construct: expressed in transfected cells; host or cells: CHO-KJ cells [sic]
Experimental: (§1) The compounds were evaluated in vitro on CHO-KJ cells expressing the gene encoding the hTRPM8 ion channel (Table 1). Channel activation is determined by fluorometric measurement of […] calcium using FLUO-8. The activity of the compounds was measured relative to icilin (known hTRPM8 agonist).
The compounds 1 to 40 were tested on hTRPM8 at 5 μM using WS3 as the reference compound (Table 2).

[2] = Chewing gum evaluation protocol, cooling intensity rated 0-10 by 6 trained panelists over 10 min; type: in vivo, human; conditions: 0.20 wt % in chewing gum, chewed 10 min, 6 panelists
Experimental: An unflavored chewing gum paste was prepared using the following formulation: Sorbitol (52.4 wt %), gum base (30.0 wt %), maltitol syrup (7.0 wt %), glycerine (5.0 wt %), mannitol (5.0 wt %), soy lecithin (0.4 wt %), acesulfame-K (0.1 wt %), and aspartame (0.1 wt %). The paste was warmed 1-2 min using a micro-wave to soften the mixture. After adding the cooling agent (0.20 wt % Compound 1), the paste was kneaded to homogenise the product. Then the paste is stretched using a sheeter, flatted at 2 mm thick, and cut in regular rectangular pieces (12×42 mm). Chewing-gums pieces are packed in plastic bag and put 1 week at room temperature to let them stabilise. Comparative chewing gum samples (A-C) were also prepared using 0.26 wt % PHYSCOOL™; 0.21 wt % WS-3™; and 0.17 wt % WS-23™, respectively.
A chewing gum evaluation protocol was performed by 6 trained panelists, where the chewing gum was chewed for 10 min while holding the panelist's mouth closed. The cooling intensity was rated from 0 (not perceived) to 10 (very intense) at 5 sec, 15 sec, 30 sec, 45 sec, 1 min, 1.5 min, 2 min, and then every minute until 10 minutes.

hTRPM8 [3] = molecular target: T1, hTRPM8; experiment: EC50 measurement on hTRPM8 (response curve); type: cell-based; conditions: for EC50: hTRPM8, response curve
Experimental: as §1
A response curve was developed for compounds 1, 3, 5 and 37 which made it possible to determine the EC50 (half maximal effective concentration) values on hTRPM8 and compare them with the EC50 values of the comparative compounds (Table 3).

[4] = Organoleptic evaluation in still water by a trained panel (cooling intensity over time); type: in vivo, human
Excerpt: Inventive compounds 1, 2 and 5 were organoleptically evaluated in still water by a trained panel. […] […] These inventive compounds appear to behave similarly to the comparative compounds.

hTRPM8 ion channel = molecular target: T2, hTRPM8 ion channel (Homo sapiens, UniProt Q7Z2W7); experiment: Primary in vitro screening on hTRPM8 (CHO-KJ cells, FLUO-8 calcium fluorometry, relative to icilin); type: cell-based; conditions: for % activation vs iciline: CHO-KJ cells expressing hTRPM8; for activation on hTRPM8 compared with comparative molecules (Physcool, WS-5, WS-3, l-isopulegol, l-menthol, menthyl lactate): primary screening, Table 1
T2 construct: expressed in transfected cells; host or cells: CHO-KJ cells [sic]
T2 sequence (Q7Z2W7 whole entry): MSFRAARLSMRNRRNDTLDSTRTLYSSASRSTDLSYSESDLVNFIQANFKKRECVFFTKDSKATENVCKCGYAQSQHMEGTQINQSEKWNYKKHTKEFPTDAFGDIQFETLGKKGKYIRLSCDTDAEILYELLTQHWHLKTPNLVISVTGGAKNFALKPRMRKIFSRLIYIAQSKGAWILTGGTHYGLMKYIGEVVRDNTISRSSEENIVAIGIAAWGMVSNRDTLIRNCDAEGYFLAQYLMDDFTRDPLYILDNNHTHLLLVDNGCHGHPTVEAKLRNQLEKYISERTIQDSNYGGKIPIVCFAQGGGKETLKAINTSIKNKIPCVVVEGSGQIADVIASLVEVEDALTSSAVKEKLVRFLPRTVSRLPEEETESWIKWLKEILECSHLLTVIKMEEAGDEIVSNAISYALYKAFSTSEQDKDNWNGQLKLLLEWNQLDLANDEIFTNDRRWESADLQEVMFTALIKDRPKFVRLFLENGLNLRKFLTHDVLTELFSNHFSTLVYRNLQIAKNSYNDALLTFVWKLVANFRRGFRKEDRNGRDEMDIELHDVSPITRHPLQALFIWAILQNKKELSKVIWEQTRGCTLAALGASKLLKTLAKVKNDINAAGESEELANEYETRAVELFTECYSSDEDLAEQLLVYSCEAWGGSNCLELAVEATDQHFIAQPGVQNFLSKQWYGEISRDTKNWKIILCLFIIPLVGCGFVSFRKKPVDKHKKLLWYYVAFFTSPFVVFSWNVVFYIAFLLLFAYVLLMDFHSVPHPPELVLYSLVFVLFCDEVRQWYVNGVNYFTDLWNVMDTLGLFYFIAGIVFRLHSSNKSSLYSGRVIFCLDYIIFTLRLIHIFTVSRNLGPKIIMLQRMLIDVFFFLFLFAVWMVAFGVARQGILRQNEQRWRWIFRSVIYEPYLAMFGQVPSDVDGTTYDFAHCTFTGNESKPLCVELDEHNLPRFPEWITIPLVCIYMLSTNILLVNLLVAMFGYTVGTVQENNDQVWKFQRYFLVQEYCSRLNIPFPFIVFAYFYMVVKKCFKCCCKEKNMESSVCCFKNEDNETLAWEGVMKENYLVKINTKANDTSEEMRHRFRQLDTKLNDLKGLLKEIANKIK
Experimental: as §1

T1 sequence (Q7Z2W7 whole entry): as above

CC(C)[C@@H]1CC[C@@H](C)CC1(CO)CO [Compound 1, ((2S,5R)-2-isopropyl-5-methylcyclohexane-1,1-diyl)dimethanol]
activation at 5 µM (hTRPM8 [1]): 99% | duration of cooling intensity in chewing gum, similar to WS-3 (0.21 wt %) and WS-23 (0.17 wt %) [2]: long cooling intensity out to 10 minutes | cooling intensity and duration in chewing gum versus Comparative Sample A (0.26 wt % PHYSCOOL) ([2]; average): more initial cooling intensity and longer lasting duration than Comparative Sample A | EC50 on hTRPM8 compared with WS-3 and WS-5 (hTRPM8 [3]; Table 3): EC50 values lower than WS-3™ and similar to WS-5™ | EC50 (hTRPM8 [3]): 4.6 µM | cooling effect versus Physcool ([4]; equimolar, larger panel, over 10 min, FIG. 3): persistent cooling effect similar to Physcool® but with a greater intensity | freshness in the mouth ([4]; still water, trained panel): freshness in the mouth with both an attack and a good persistence | % activation vs iciline (hTRPM8 ion channel; concentration 156 μM): 199% | activation on hTRPM8 compared with comparative molecules (Physcool, WS-5, WS-3, l-isopulegol, l-menthol, menthyl lactate) (hTRPM8 ion channel): greater activations than the comparative molecules

COc1cc(C2OCC3(CO2)C[C@H](C)CC[C@H]3C(C)C)ccc1O (stereo partly drawn) [Compound 5, 4-((7S,10R)-7-isopropyl-10-methyl-2,4-dioxaspiro[5.5]undecan-3-yl)-2-methoxyphenol]
activation at 5 µM (hTRPM8 [1]): 16% | EC50 (hTRPM8 [3]): 39 µM | % activation vs iciline (hTRPM8 ion channel; concentration 96 μM): 176% | activation on hTRPM8 compared with comparative molecules (Physcool, WS-5, WS-3, l-isopulegol, l-menthol, menthyl lactate) (hTRPM8 ion channel): greater activations than the comparative molecules
